Measurements reported in patent publication US6924314B2, “Compounds for the treatment of metabolic disorders” (Wellstat Therapeutics Corporation, priority 2001, dated 2005).

Columns and labels:
[1] = test system: streptozotocin diabetic mice; assay: Serum chemistries and body weights in streptozotocin diabetic mice treated with oral Compound AH for 14 weeks; type: in vivo, Balb/C mice
Protocol: Streptozotocin (STZ) is a toxin that selectively destroys insulin-producing pancreatic beta cells, and is widely used to induce insulin-dependent diabetes in experimental animals.
Female Balb/C mice (8 weeks old; 18-20 grams body weight) were treated with streptozotocin (STZ) (50 mg/kg i.p. on each of five consecutive days). Fourteen days after the last dose of STZ, blood glucose was measured to verify that the animals were diabetic, and the mice were divided into two groups of 5 animals each, one group receiving Compound AH (250 mg/kg) daily by oral gavage, and the other receiving vehicle (0.75% hydroxypropylmethylcellulose, a suspending agent, in water). […] Blood samples were taken periodically for determination of blood glucose concentrations, and body weights were also recorded.
Body weights and blood glucose, triglyceride and cholesterol concentrations 14 weeks after the beginning of drug treatment are shown in Table 1.

[2] = test system: NOD mice; assay: Incidence of spontaneous diabetes and mortality in NOD mice; type: in vivo; settings: 200 mg/kg/day oral, seven months
Protocol: A substantial proportion of NOD (“non-obese diabetic”) mice develop insulin-dependent diabetes as a consequence of spontaneous autoimmune destruction of pancreatic islet cells. Two groups of 20 NOD mice (6 weeks old) were treated daily with either oral Vehicle (0.4 ml of 0.75% hydroxypropyl methylcellulose in water; HPMC) or Compound AH (200 mg/kg/day) suspended in HPMC. The incidence of mortality due to spontaneous development of severe insulin-dependent diabetes was monitored over a period of seven months. At the end of this time, 13/20 mice treated with vehicle had died of uncontrolled diabetes, whereas only 5/20 mice treated with Compound AH had died.

[3] = test system: mice with lethal insulin-dependent diabetes; assay: Survival of mice with lethal insulin-dependent diabetes (single dose streptozotocin); type: in vivo, Balb/C mice; settings: 250 mg/kg/day oral gavage
Protocol: Female Balb/C mice (14 weeks old) were treated with a single dose of streptozotocin (175 mg/kg i.p.) to induce severe insulin-dependent diabetes. Seven days later, mice were divided into three treatment groups: Compound AH, pioglitazone, and vehicle. Mice were treated daily via oral gavage, and survival was monitored over time.

[4] = test system: ob/ob obese diabetic mice; assay: Acute hypoglycemic effect in ob/ob obese diabetic mice: Experiment 1; type: in vivo; settings: single oral dose by gavage, 6 hours
Protocol: Male ob/ob diabetic mice were randomized into groups of five animals each. Body weights were 50-55 g and blood glucose was approximately 300 mg/dL in the fed state. A single oral dose of a test substance suspended in 0.5% carboxymethylcellulose vehicle was administered by gavage. Blood glucose was measured in blood droplets obtained by nicking a tail vein with a razor using glucometer test strips and a Glucometer Elite XL device (Bayer) at 0, 0.5, 2, 4, 6 and 18 hours after the initial dosing. A 10% reduction in blood glucose versus oral vehicle is considered a positive screening result. Blood glucose reductions were generally maximal at 6 hours after drug administration.

[5] = streptozotocin diabetic Balb/C mice, 250 mg/kg daily oral gavage, 14 weeks

O=C(O)CCC(=O)c1ccc(OCc2c(F)cccc2F)cc1 [Compound AH, 4-(4-(2,6-Difluorobenzyloxy)phenyl)-4-oxobutyric acid]
blood glucose concentrations ([1]; 250 mg/kg daily oral, after several weeks of treatment): began to decrease toward baseline | metabolic abnormalities associated with insulin-dependent diabetes ([1]; oral treatment, 250 mg/kg daily): significant amelioration | Body Weight [1, 5]: 21.7 ± 0.8 g | Cholesterol [1, 5]: 82 ± 2 mg/dL | Glucose [1, 5]: 207 ± 12 mg/dL | Triglycerides [1, 5]: 62 ± 7 mg/dL | mortality due to spontaneous severe insulin-dependent diabetes [2]: 5/20 | body weights of survivors at 12 weeks [3]: recovered and were maintained in the normal range | Survivors (Survival at 12 weeks) ([3]; STZ 175 mg/kg i.p. Balb/C mice): 4/5 | % Reduction vs Control [4]: −24.9 ± 3.7% | Blood Glucose after 6 hours [4]: 223 ± 11 mg/dL
